The text below walks through data of patent US20070225308A1, “2-Amino Quinazoline Derivative” (Kyowa Hakko Kogyo Co.,Ltd., priority 2004, published 2007).

The target of one series is T1, recombinant human PDE-IV (HSPDE4A) (Homo sapiens, UniProt P27815).
T1 construct: made in house; host or cells: Sf9 insect cells
T1 sequence (P27815 whole entry): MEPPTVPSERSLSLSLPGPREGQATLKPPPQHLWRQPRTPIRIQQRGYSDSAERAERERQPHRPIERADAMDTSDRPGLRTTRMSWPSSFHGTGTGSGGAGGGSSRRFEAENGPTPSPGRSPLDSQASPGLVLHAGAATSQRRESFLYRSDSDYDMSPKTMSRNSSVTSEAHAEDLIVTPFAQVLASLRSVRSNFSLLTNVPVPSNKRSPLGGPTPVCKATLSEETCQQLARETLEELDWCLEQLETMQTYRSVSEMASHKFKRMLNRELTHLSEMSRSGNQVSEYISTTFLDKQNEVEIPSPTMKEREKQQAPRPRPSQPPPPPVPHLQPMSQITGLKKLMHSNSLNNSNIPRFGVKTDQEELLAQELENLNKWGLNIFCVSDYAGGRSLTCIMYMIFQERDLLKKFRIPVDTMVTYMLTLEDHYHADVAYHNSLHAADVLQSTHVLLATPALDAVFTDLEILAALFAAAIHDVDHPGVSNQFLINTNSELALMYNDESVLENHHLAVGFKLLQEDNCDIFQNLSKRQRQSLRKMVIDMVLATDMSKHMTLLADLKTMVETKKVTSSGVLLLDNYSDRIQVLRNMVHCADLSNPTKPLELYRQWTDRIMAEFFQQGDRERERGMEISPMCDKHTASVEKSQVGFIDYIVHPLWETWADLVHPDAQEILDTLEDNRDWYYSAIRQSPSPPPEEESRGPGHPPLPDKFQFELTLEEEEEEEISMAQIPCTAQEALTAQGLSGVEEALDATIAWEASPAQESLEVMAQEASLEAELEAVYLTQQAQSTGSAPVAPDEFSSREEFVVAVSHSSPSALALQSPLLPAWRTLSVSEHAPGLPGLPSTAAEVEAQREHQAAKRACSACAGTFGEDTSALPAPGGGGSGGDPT
In words: Recombinant Human PDE-IV-Inhibiting Test. It is filed as biochemical. Particulars: at the concentration of 0.1 μmol/L; substrate [3H]cAMP 1 μmol/L; read-out: enzyme-inhibitory activity. As to the method:
Recombinant Human PDE-IV-Inhibiting Test
A human PDE cDNA (HSPDE4A) was isolated from HL-60 cells. An expected amino acid sequence thereof is the same as the sequence (HSPDE4A4) reported by Bolger G., et al (Mol. Cell. Biol., 1993, Vol. 13, p. 6558). The recombinant protein was expressed, using Sf9 insect cells. The PDE activity was measured according to the following two-step process, based on the method by Kincid R. L. and Manganiello V. C. (Method. Enzymol., 1988, Vol. 159, p. 457). [^3H]cAMP (final concentration: 1 μmol/L) was used as the substrate. The reaction was performed in a standard, mixture containing N,N-bis(2-hydroxyethyl)-2-aminoethanesulfonic acid (50 mmol/L, pH 7.2), magnesium chloride (1 mmol/L) and soybean trypsin inhibitor (0.1 mg/mL). The reaction was started by the addition of enzyme, and the reaction mixture was incubated at 30° C. for 10 to 30 minutes. The reaction was stopped by hydrochloric acid, and the formed 5′-AMP was completely decomposed by 5′-nucleotidase. The resulting mixture was treated with chromatography of DEAE-Sephadex A-25, and the eluted [^3H]adenosine was counted with a scintillation counter. The test compounds were dissolved in DMSO, and added to the system (concentration 1.7%).
As for `COc1c(C2=CCNCC2)cc(-c2cccc(Cl)c2)c2cnc(N(C)C)nc12` [Compound 43, 5-(3-Chlorophenyl)-2-dimethylamino-8-methoxy-7-(1,2,5,6-tetrahydropyridine-4-yl)quinazoline], the inhibition at 0.1 µM was at least 50%.
As to `COc1c(-c2ccc(C(=O)O)cc2)cc(-c2cccc(Cl)c2)c2cnc(N(C)C)nc12` [Compound 15, 7-(4-Carboxyphenyl)-5-(3-chlorophenyl)-2-dimethylamino-8-methoxyquinazoline], the inhibition at 0.1 µM was at least 50%.
`CNc1ncc2c(-c3cccc(Cl)c3)cc(-c3ccc(C(=O)O)cc3)c(OC)c2n1` [Compound 18, 7-(4-Carboxyphenyl)-5-(3-chlorophenyl)-8-methoxy-2-(methylamino)quinazoline]: the inhibition at 0.1 µM is at least 50%.
In the case of `COc1c(-c2ccc(C(=O)O)cc2)cc(-c2cccc(Cl)c2)c2cnc(N)nc12` [Compound 13, 2-Amino-7-(4-carboxyphenyl)-5-(3-chlorophenyl)-8-methoxyquinazoline], the inhibition at 0.1 µM was at least 50%.
Regarding `CNc1ncc2c(-c3cncc(Cl)c3)cc(-c3ccc(C(=O)O)cc3)c(OC)c2n1` [Compound 20, 7-(4-Carboxyphenyl)-5-(5-chloropyridine-3-yl)-8-methoxy-2-(methylamino)quinazoline], the inhibition at 0.1 µM is at least 50%.
As for `CNc1ncc2c(-c3cccc(Cl)c3)cc(CCC(=O)O)c(OC)c2n1` [Compound 35, 7-(2-Carboxyethyl)-5-(3-chlorophenyl)-8-methoxy-2-(methylamino)quinazoline], the inhibition at 0.1 µM was at least 50%.
Take `COc1c(-c2ccc(C(=O)O)cc2)cc(-c2cccc([N+](=O)[O-])c2)c2cnc(N)nc12` [Compound 12, 2-Amino-7-(4-carboxyphenyl)-8-methoxy-5-(3-nitrophenyl)quinazoline]: the inhibition at 0.1 µM is at least 50%.
Same read-out and setting: to `COc1c(-c2ccc(C(=O)O)cc2)cc(-c2cccc([N+](=O)[O-])c2)c2cnc(N(C)C)nc12` [Compound 14, 7-(4-Carboxyphenyl)-2-dimethylamino-8-methoxy-5-(3-nitrophenyl)quinazoline] belongs at least 50%; to `COc1c(-c2cccc(C(=O)O)c2)cc(-c2cccc(Cl)c2)c2cnc(N(C)C)nc12` [Compound 37, 7-(3-Carboxyphenyl)-5-(3-chlorophenyl)-2-dimethylamino-8-methoxyquinazoline], at least 50%.
Still for that read-out and setting: the value for `CNc1ncc2c(-c3cccc(C#N)c3)cc(-c3ccc(C(=O)O)cc3)c(OC)c2n1` [Compound 19, 7-(4-Carboxyphenyl)-5-(3-cyanophenyl)-8-methoxy-2-(methylamino)quinazoline] was at least 50%.

Test system in a further series: not given
Assay: not given
Details: not given
`CNc1ncc2c(-c3cccc(Cl)c3)cc(-c3cccc(CC(=O)O)c3)c(OC)c2n1` [Compound 59, 7-[3-(Carboxymethyl)phenyl]-5-(3-chlorophenyl)-8-methoxy-2-(methylamino)quinazoline] gave a melting point of 258 to 261 °C.
Compound `CNc1ncc2c(-c3cccc(Cl)c3)cc(-c3ccc(C(=O)O)cc3)c(O)c2n1` [Compound 112, 7-(4-Carboxyphenyl)-5-(3-chlorophenyl)-8-hydroxy-2-(methylamino)quinazoline] came in with a melting point of 291 to 296 °C.
`CNc1ncc2c(-c3cccc(Cl)c3)cc(-c3ccc(CCC(=O)O)cc3)c(OC)c2n1` [Compound 55, 7-[4(2-Carboxyethyl)phenyl]-5-(3-chlorophenyl)-8-methoxy-2-(methylamino)quinazoline] yielded a melting point of 208 to 213 °C.
Regarding `CNc1ncc2c(-c3cccc(Cl)c3)cc(/C=C/C(=O)O)c(OC)c2n1` [Compound 95, 7-[E-(2-carboxyethenyl)]-5-(3-chlorophenyl)-8-methoxy-2-(methylamino)quinazoline], the melting point was 291 to 295 °C.

The melting point is the temperature, or range, at which the solid turns liquid.
